In patent US20240209028A1, “CNP COMPOUNDS” (priority 2022, published 2024):
Starred links: 1 amine or outer side, 2 acyl side, 3 side chain; linkers in the order of their positions; H or OH if unused. Positions of bridges follow the written chain, without caps; N, C: chain ends. Residues, ends and D or L forms follow the SMILES beside them. *: point of attachment. C18 diacid = O=C(O)CCCCCCCCCCCCCCCCC(=O)*; γGlu = O=C(O)[C@H](CCC(=O)[*:2])N[*:1]; AEEA = NCCOCCOCC(=O)O

Key:
[1] = Local tolerance of CNP compounds in rats (s.c. injection, histopathology); format: in vivo, Sprague Dawley rat; settings: for assessment for human subcutaneous administration: based on rat local tolerance
Method: The purpose of this study was to evaluate the local tissue reaction to subcutaneous injection of CNP compounds in rats.
Procedure: The CNP compounds were formulated according to the principles described in General Methods of Preparation-Method G. Each Sprague Dawley rat (male, 10-11 weeks of age at arrival, Janvier, France) was dosed s.c. with 250 or 350 uL of the same compound (formulation concentration of 1000 nmol/mL) 120 h prior to tissue collection resulting in a total of two injections for each animal (Table 15). Injection site (flank or neck) was alternated across animals within each group and time point.
Animals had access to tap water and food (Altromin 1324) ad libitum. Group size was n=3 for vehicles and positive control, and n=4 for test compounds. Vehicles and compounds were formulated in either 5 mM sodium acetate, 250 mM glycerol, pH 4.0 or 8 mM sodium phosphate, 250 mM glycerol, pH 7.4 as shown in Table 16.
The animals were anesthetized with isoflurane. Via an electric shaving machine, a squared area of fur (2 cm×2 cm) was removed either from the rats' neck or flank area). For dosing, a new injection needle (25G canula, 1 ml syringe) was placed in the middle of the square border closest to the animal's head and the needle was inserted into the skin from the border towards the center of the square. […] On the day of tissue collection, the rats were deeply anaesthetized with isoflurane and euthanized by exsanguination. The injection sites were inspected and scored with regards to pathological lesions. The injection sites were evaluated, and any changes were noted (location, colour, shape and size), and sampled for histology preparation.
The injection sites were removed and fixed in 4% phosphate buffered neutral formaldehyde in sealed plastic containers.
Each injection site was subsequently cut into three sections 0.8 cm, 1.0 cm and 1.2 cm from the square border where the injection needle was placed, and, respectively, these sections represented the injection sites and the adjacent tissue. The tissue was processed, embedded in paraffin and cut in 2-4 μm thin sections, stained with the haematoxylin and eosin (H&E), and evaluated microscopically with a light microscope. Histopathological changes were graded on a 5-level scale (Minimal (Min), Mild (Mil), Moderate (Mod), Marked (Mar) and Severe (Sev)).

[2] = CNP local tolerance study in LYD pigs (s.c. injection, histopathology); format: in vivo, domestic LYD pig; settings: for assessment for human subcutaneous administration: based on pig local tolerance
Outline: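 Domestic pigs dosed s.c. mid-back, 100 or 200 μl at approx. 4400 μM, in phosphate pH 6.5 or acetate pH 4.0 buffers with glycerol or propylene glycol; saline as negative control. Sites excised 4 or 5 days post injection, H&E sections graded on 5-level scale; necrosis used as marker.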

mouse metatarsal bones = experiment: Mouse metatarsal bone dissection and culture (ex vivo bone growth); format: cell-based, mouse (NMRI); settings: 100 nM, n=8
Method: The purpose of this study was to evaluate bone growth after administration of CNP compounds in an ex vivo mouse model.
Procedure: One-day old mouse pups (NMRI, Javier Labs France) were euthanised prior to dissection. All applicable international and internal Novo Nordisk guidelines for care and use of animals were followed. The three middle metatarsal bones were dissected out from each hind paw. The dissected bones were placed in 24-well cell culture plates and cultured in 400 μl a-Minimum Essential Media supplemented with 0.2% BSA, 1% Pen/Strep at 37° C. and 5% CO2. The bones from all animals were randomised into a control group and six CNP compound-treated groups (100 nM; n=8). The medium was changed every 2-3 days. All compounds were formulated according to the principles described in General Methods of Preparation—Method G. Compounds 9435 and 9483 were formulated in A) 5 mM sodium acetate, 250 mM glycerol, pH 4.0 while compounds 9384, 9407, 9480 and 9482 were formulated in B) 8 mM sodium phosphate, 250 mM glycerol, pH 7.4.
Digital pictures were captured on day 0, 4, 7, 11, and 14 using a digital camera attached to a Nikon microscope. The length of each metatarsal bone was measured using ImageJ software and increase in bone length was expressed as percentage change from the length measured at the day of dissection (Mean (SD)).
In Table 27, metatarsal bones were isolated from mice and cultured for up to 14 days. Length was measured every 3-4 days throughout the study and expressed as percentage change from day 0 (Mean (SD)). Statistically significant differences are indicated compared to control group (two-way ANOVA).

[3] = 5 days after subcutaneous injections in the rat
[4] = 5 days after subcutaneous injections in the pig

Structure (SMILES) | local subcutaneous necrosis [1, 3] | assessment for human subcutaneous administration [1] | local subcutaneous necrosis [2, 4] | assessment for human subcutaneous administration [2] | Increase in bone length, mean (%) change from day 0 (mouse metatarsal bones; day 4 in culture) [%] | Increase in bone length, mean (%) change from day 0 (mouse metatarsal bones; day 7 in culture) [%] | Increase in bone length, mean (%) change from day 0 (mouse metatarsal bones; day 11 in culture) [%] | Increase in bone length, mean (%) change from day 0 (mouse metatarsal bones; day 14 in culture) [%] | local subcutaneous necrosis ([1]; rat, in vivo, sc) | local subcutaneous necrosis ([2]; pig, in vivo, sc)
CC[C@H](C)[C@@H]1NC(=O)[C@H](CCCNC(=N)N)NC(=O)[C@H](CC(=O)O)NC(=O)[C@H](CC(C)C)NC(=O)[C@@H]2CCCN2C(=O)[C@H](CC(C)C)NC(=O)CNC(=O)[C@H](Cc2ccccc2)NC(=O)[C@@H](NC(=O)CNC(=O)[C@H](CO)NC(=O)[C@H](CO)NC(=O)[C@@H](NC(=O)CNC(=O)[C@@H](NC(=O)[C@H](Cc2c[nH]cn2)NC(=O)[C@H](CCC(N)=O)NC(=O)[C@H](C)NC(=O)CNC(=O)[C@H](Cc2c[nH]cn2)NC(=O)[C@H](Cc2ccc(O)cc2)NC(=O)[C@H](CCCCN)NC(=O)[C@H](CCCNC(=N)N)NC(=O)[C@H](C)NC(=O)COCCOCCNC(=O)COCCOCCNC(=O)CC[C@H](NC(=O)CCCCCCCCCCCCCCCCC(=O)O)C(=O)O)[C@@H](C)O)C(C)C)CSSC[C@@H](C(=O)O)NC(=O)CNC(=O)[C@H](CC(C)C)NC(=O)CNC(=O)[C@H](CO)NC(=O)[C@H](CC(C)C)NC(=O)[C@H](CO)NC(=O)CNC1=O [compound 1351] ({C18 diacid-γGlu-AEEA-AEEA}-ARKYHGAQHTGVSSGCFGLPLDRIGSLSGLGC-OH; disulfide 16-32) | no or mild | acceptable |  |  |  |  |  |  |  | 
CC[C@H](C)[C@@H]1NC(=O)[C@H](CCCNC(=N)N)NC(=O)[C@H](CC(=O)O)NC(=O)[C@H](CC(C)C)NC(=O)[C@@H]2CCCN2C(=O)[C@H](CC(C)C)NC(=O)CNC(=O)[C@H](Cc2ccccc2)NC(=O)[C@@H](NC(=O)CNC(=O)[C@H](CCC(N)=O)NC(=O)[C@H](CO)NC(=O)[C@H](CO)NC(=O)CNC(=O)[C@H](CCCCN)NC(=O)[C@H](CCCCN)NC(=O)[C@H](CCC(N)=O)NC(=O)[C@H](C)NC(=O)CNC(=O)[C@@H]2CCCN2C(=O)[C@H](C)NC(=O)[C@H](CCC(N)=O)NC(=O)CNC(=O)COCCOCCNC(=O)COCCOCCNC(=O)CC[C@H](NC(=O)CCCCCCCCCCCCCCCCC(=O)O)C(=O)O)CSSC[C@@H](C(=O)O)NC(=O)CNC(=O)[C@H](CC(C)C)NC(=O)CNC(=O)[C@H](CO)NC(=O)[C@H](CC(C)C)NC(=O)[C@H](CO)NC(=O)CNC1=O [compound 9384] ({C18 diacid-γGlu-AEEA-AEEA}-GQAPGAQKKGSSQGCFGLPLDRIGSLSGLGC-OH; disulfide 15-31; C-terminus assumed) | no or mild | acceptable | no to minimal | acceptable | 33.6 | 42.6 | 50.1 | 54.4 |  | 
CC[C@H](C)[C@@H]1NC(=O)[C@H](CCCNC(=N)N)NC(=O)[C@H](CC(=O)O)NC(=O)[C@H](CC(C)C)NC(=O)[C@@H]2CCCN2C(=O)[C@H](CC(C)C)NC(=O)CNC(=O)[C@H](Cc2ccccc2)NC(=O)[C@@H](NC(=O)CNC(=O)[C@H](CCCCN)NC(=O)[C@H](CO)NC(=O)[C@@H](NC(=O)CNC(=O)[C@@H](NC(=O)[C@H](Cc2c[nH]cn2)NC(=O)[C@H](CCC(N)=O)NC(=O)[C@H](C)NC(=O)CNC(=O)[C@H](Cc2c[nH]cn2)NC(=O)[C@H](Cc2ccc(O)cc2)NC(=O)[C@H](CCCCN)NC(=O)[C@H](CCCNC(=N)N)NC(=O)[C@H](C)NC(=O)COCCOCCNC(=O)COCCOCCNC(=O)CC[C@H](NC(=O)CC[C@H](NC(=O)CC[C@H](NC(=O)CCCCCCCCCCCCCCCCC(=O)O)C(=O)O)C(=O)O)C(=O)O)[C@@H](C)O)C(C)C)CSSC[C@@H](C(=O)O)NC(=O)CNC(=O)[C@H](CC(C)C)NC(=O)CNC(=O)[C@H](CO)NC(=O)[C@H](CC(C)C)NC(=O)[C@H](CO)NC(=O)CNC1=O [compound 1420] ({C18 diacid-γGlu-γGlu-γGlu-AEEA-AEEA}-ARKYHGAQHTGVSKGCFGLPLDRIGSLSGLGC-OH; disulfide 16-32) | no or mild | acceptable |  |  |  |  |  |  |  | 
CC[C@H](C)[C@@H]1NC(=O)[C@H](CCCNC(=N)N)NC(=O)[C@H](CC(=O)O)NC(=O)[C@H](CC(C)C)NC(=O)[C@@H]2CCCN2C(=O)[C@H](CC(C)C)NC(=O)CNC(=O)[C@H](Cc2ccccc2)NC(=O)[C@@H](NC(=O)CNC(=O)[C@H](CCC(N)=O)NC(=O)[C@H](CO)NC(=O)[C@H](CC(C)C)NC(=O)CNC(=O)[C@H](CCCCN)NC(=O)[C@H](CCCCN)NC(=O)[C@H](CCC(N)=O)NC(=O)[C@H](C)NC(=O)CNC(=O)[C@H](CCCCN)NC(=O)[C@H](Cc2ccc(O)cc2)NC(=O)[C@H](CCCCN)NC(=O)[C@H](CCCNC(=N)N)NC(=O)[C@H](C)NC(=O)COCCOCCNC(=O)COCCOCCNC(=O)COCCOCCNC(=O)COCCOCCNC(=O)CC[C@H](NC(=O)CC[C@H](NC(=O)CC[C@H](NC(=O)CC[C@H](NC(=O)CC[C@H](NC(=O)CCCCCCCCCCCCCCCCC(=O)O)C(=O)O)C(=O)O)C(=O)O)C(=O)O)C(=O)O)CSSC[C@@H](C(=O)O)NC(=O)CNC(=O)[C@H](CC(C)C)NC(=O)CNC(=O)[C@H](CO)NC(=O)[C@H](CC(C)C)NC(=O)[C@H](CO)NC(=O)CNC1=O [compound 9407] ({C18 diacid-γGlu-γGlu-γGlu-γGlu-γGlu-AEEA-AEEA-AEEA-AEEA}-ARKYKGAQKKGLSQGCFGLPLDRIGSLSGLGC-OH; disulfide 16-32) | no or mild | acceptable | no to minimal | acceptable | 35.1 | 45.4 | 53.2 | 55.8 |  | 
CC[C@H](C)[C@@H]1NC(=O)[C@H](CCCNC(=N)N)NC(=O)[C@H](CCC(=O)O)NC(=O)[C@H](CC(C)C)NC(=O)[C@H](CCCCN)NC(=O)[C@H](CC(C)C)NC(=O)CNC(=O)[C@H](Cc2ccccc2)NC(=O)[C@@H](NC(=O)CNC(=O)[C@H](CCCCN)NC(=O)[C@H](CO)NC(=O)[C@H](CC(C)C)NC(=O)CNC(=O)[C@H](CCCCN)NC(=O)[C@H](CCCCN)NC(=O)[C@H](CCC(N)=O)NC(=O)[C@H](C)NC(=O)CNC(=O)[C@H](CCCCN)NC(=O)[C@H](Cc2ccc(O)cc2)NC(=O)[C@H](CCCCN)NC(=O)[C@H](CCCNC(=N)N)NC(=O)[C@H](C)NC(=O)COCCOCCNC(=O)COCCOCCNC(=O)CC[C@H](NC(=O)CCCCCCCCCCCCCCCCC(=O)O)C(=O)O)CSSC[C@@H](C(=O)O)NC(=O)CNC(=O)[C@H](CC(C)C)NC(=O)CNC(=O)[C@H](CO)NC(=O)[C@H](CC(C)C)NC(=O)[C@H](CO)NC(=O)CNC1=O [compound 0776] ({C18 diacid-γGlu-AEEA-AEEA}-ARKYKGAQKKGLSKGCFGLKLERIGSLSGLGC-OH; disulfide 16-32) |  |  |  |  |  |  |  |  | moderate to marked | moderate to marked
